Measured values published in publication PMC4788259 (PLoS Neglected Tropical Diseases, 2016).
Read-outs that look alike come from different tables or passages of the source.

Experiments:
[1] = test system: E. multilocularis metacestodes; experiment: Peroral treatment of secondary infected mice; type: in vivo, BALB/c mice; conditions: p.o. gavage 5 days per week, 4 weeks, MMV665807 100 mg/kg, ABZ 200 mg/kg
Method: (§1) Animals were kept at a temperature-controlled 12/12 hours light cycle with food and water ad libitum and according to the Swiss Animal protection law. For the in vivo treatment of MMV665807, BALB/c mice (from Charles River, Sulzfeld, Germany), at the age of 8 weeks with an average body weight of 20 g, were i.p. infected with 200 μL metacestodes vesicle suspension. This material was prepared from in vitro-cultured metacestodes (strain H95), which were disintegrated by pressing the parasites through a 1 mL pipette tip. Parasite tissue was centrifuged at 500 x g for 5 min at room temperature before being mixed 1:1 in PBS.
Peroral (p.o.) drug treatments by gavage were initiated 6 weeks post-infection and performed as follows: group 1 received no treatment at all; group 2 received 100 μL corn oil containing 7.8 μL DMSO; group 3 mice were treated with 100 μL corn oil containing albendazole (ABZ) in 7.8 μL DMSO, in order to obtain a dosage of 200 mg/kg body weight (positive control); group 4 was treated with 100 μL corn oil containing MMV665807 in 7.8 μL DMSO, resulting in 100 mg/kg body weight. All mice were treated for a total time period of 4 weeks, with consecutive treatment during 5 days per week, and interruption of treatment for 2 days each week. At the end of the treatment, all mice were sedated by isoflurane and subsequently euthanized by CO2. All parasite tissue was resected, placed into a petri dish, and the parasite mass was weighed. Statistical analysis of the in vivo experiments was performed in R version 3.0.1. The data distribution was checked by Shapiro-Wilk test and eventual differences between treatment groups identified by the non-parametric Kruskal-Wallis test. P values were calculated by the non-parametric Wilcoxon […] test with Bonferroni-adjustment. Boxplot visualizations of the data were prepared in Microsoft Excel 2010.

[2] = test system: Reuber rat hepatoma (RH) cells; experiment: alamarBlue viability assay on RH cells; type: cell-based; conditions: 120 h, 5 days
Method: For testing growth inhibitory effects on confluent host cells, cells were seeded in 96-well plates (10,000 cells per well for HFF and 50,000 cells per well for RH cells), in DMEM containing FBS (10%) and antibiotics (100 U penicillin, 100 μg streptomycin and 0.25 μg amphotericin B per mL medium) and were cultured overnight at 37°C, 5% CO2. Thereafter the drugs (10 μM) were added and diluted in a serial 1:2 dilutions down to 20 nM. The concentration range was further adjusted in subsequent setups. For testing growth inhibitory effects on proliferating cells, cells were seeded at 1,000 (HFF) and 5,000 (RH) cells per well, and were allowed to attach for 5 hours at 37°C before addition of the drugs. After 5 days of culture, cell viability was assessed by alamarBlue assay.

[3] = test system: E. multilocularis metacestode vesicles; experiment: microbe, parasite or virus in culture; conditions: Echinococcus multilocularis, 288 h, read-out: mean viability
[4] = test system: E. multilocularis metacestodes; experiment: Intraperitoneal treatment of secondary infected mice; type: in vivo, BALB/c mice; conditions: 4 weeks, MMV665807 100 mg/kg i.p. three times per week, ABZ 200 mg/kg p.o. 5 days per week
Method: as §1
I.p. drug treatments were initiated 2 weeks post-infection. 32 infected mice were randomly separated into 4 groups with 2 times 4 animals per cage. All animals were exposed to 4 weeks of treatment, with five consecutive days of drug application followed by a 2 day recovery period without treatment. Treatment groups were defined as follows: group 1 (control) received 50 μL of corn oil by gavage on 5 days per week, and an i.p. injection of DMSO in corn oil (4 μL DMSO and 46 μL corn oil) on three days per week; group 2 also received corn oil by gavage 5 days per week, and an i.p. injection of MMV665807 (100 mg/kg in 4 μL DMSO plus 46 μL corn oil) three times per week; group 3 was treated with the standard albendazole treatment (albendazole in corn oil, 200 mg/kg/ day for 5 days each week) and also received an i.p. injection of 4 μl DMSO suspended in 46 μl corn oil three times per week; group 4 received a combined treatment consisting of albendazole in corn oil by gavage (200 mg/kg/day 5 days per week) and an i.p. injection of MMV665807 (100 mg/kg three times per week). After 4 weeks of treatment, mice were euthanized and the parasite mass resected and measured as described above. Statistical analyses were performed as described above.

[5] = test system: E. multilocularis metacestodes; experiment: Transmission electron microscopy of treated metacestodes; type: cell-based, Echinococcus multilocularis; conditions: 5 days
Method: In vitro-cultured metacestodes were cultured for five days in the presence of 1.6, 0.8, 0.4 or 0.1 μM MMV665807, or in the absence of the drug, and were processed for TEM as previously described. In short, primary fixation was carried out in 2% glutaraldehyde in 0.1 M sodium-cacodylate buffer, pH 7.3 for 1 h, and post-fixation in 2% osmium tetroxide in 0.1 M sodium-cacodylate buffer for 2 h. Samples were then pre-stained in saturated uranyl acetate solution in water for 30 min, washed in water, and were stepwise dehydrated in ethanol (30%, 50%, 70%, 90%, and three times 100%). Subsequently specimens were embedded in epoxy resin and polymerization of the resin was carried out at 60°C for 12 h. Ultrathin sections were cut using an ultramicrotome (Reichert and Jung, Vienna, Austria), and were loaded onto formvar-carbon coated nickel grids (Plano GmbH, Marburg, Germany). Specimens were stained with uranyl acetate and lead citrate, and were viewed on a Phillips EM400 transmission electron microscope operating at 80 kV.

M. tuberculosis = test system: M. tuberculosis; set-up: method as in PMID 23211970; conditions: cited from earlier work
T. gondii = test system: T. gondii; set-up: method as in PMID 22970937; conditions: cited from earlier work
[6] = cited from earlier work
[7] = PO, administered dose 119 μmol/kg, ref MMV

In the case of `O=C(Nc1cccc(C(F)(F)F)c1)c1cc(Cl)ccc1O` [MMV665807], the “parasite weight compared to control” value ([1]; start 6 weeks post-infection) is reported as “no effect”, the “adverse effects during treatment” value [1] is reported as “No adverse effects” and the IC50 ([2]; confluent cells, read-out: Confluent RH (IC50)) is reported as 20.5 ± 0.13 µM. It also gave an IC50 ([2]; proliferating cells, read-out: Preconfluent RH (IC50)) of 4.3 ± 0.14 µM, a viability at 0.1 µM [3] of 59.7% and a viability at 0.2 µM [3] of 65.5%. The viability at 0.4 µM [3] was 69%, the viability at 0.8 µM [3] was 97.9% and the viability at 1.6 µM [3] was 5.29%. The viability at 3.1 µM [3] was 6.06%, the viability at 6.3 µM [3] was 4.71% and the viability at 12.5 µM [3] was 2.84%. For the same compound, the viability at 25 µM [3] was 2.92%, the viability at 50 µM [3] was 2.9% and the viability at 100 µM [3] was 3.06%. The “parasite weight compared to placebo group” value ([4]; start 2 weeks post-infection) was “did not result in a reduction”, the “adverse effects during treatment” value [4] was “No adverse effects” and the “ultrastructural alterations (TEM)” value ([5]; 0.1 μM and 0.4 μM) was “did not show any major alterations”. For the same compound, the “ultrastructural alterations (TEM)” value ([5]; 0.8 μM) was “Clear alterations in the Echinococcus ultrastructure”, the “ultrastructural alterations (TEM)” value ([5]; 1.6 μM) was “clear signs of cell death” and the MIC (M. tuberculosis) was 3.1 to 6.3 µM. The “in vitro activity against T. gondii” value (T. gondii) was “moderate in vitro activity”, the AUC0-last [6, 7] was 264 nM·h and the Cmax [6, 7] was 0.0623 µM. The MRT0-last [6, 7] was 5.24 h, the Tlast [6, 7] was 9.00 h and the Tmax [6, 7] was 6.33 h. The plasma level ([6]; single dose p.o. application of 50 mg/kg, ref MMV (S3 Table)) was 0.06 µM.
